Results from US10239835B2, “N-alkylaryl-5-oxyaryl-octahydro-cyclopenta[c]pyrrole negative allosteric modulators of NR2B” (Luc Therapeutics, Inc., priority 2014, dated 2019).

What was measured:
[1] = molecular target: HEK293 cells expressing NR1/NR2B (Homo sapiens (Human), UniProt Q05586+Q13224); experiment: NR2B NAM Assay (FDSS Ca2+ influx cell assay); type: cell-based; details: NR2B NAM assay, class of inhibitory concentration; read-out: Activity Category
Experimental: (§1) Cell Culture and plating: HEK293 cells expressing NR1/NR2B (Chantest, Cleveland, Ohio) were grown to 70-80% confluency as an adherent monolayer in standard tissue culture flasks at 37° C., 5% CO2 per supplier's instructions. NR2B expression was induced by incubation with 0.3-0.4 μg/ml tetracycline in the presence of 4 mM ARL-15896 for 18-24 hours under the same growth conditions, then transferred to 30° C. for another 3-5 hours.
(§2) After induction, cell culture medium was removed and cells were rinsed once with Ca^2+ and Mg^2+-free Dulbecco's phosphate buffered saline. Cells were then removed from the flask using TrypLE™ Express (Life Technologies) according to the manufacturer's instructions and collected to 50 ml centrifuge tubes. Following two washes in Ca^2+/Mg^2+-free HBSS with 20 mM HEPES (HHnoCa), cells were counted and viability assessed using trypan blue. To load cells with Ca^2+-sensitive dye, they were resuspended in fluo-8 plus Component B (AAT Bioquest Products) diluted in HHnoCa and incubated 15 minutes at 37° C., followed by 30 minutes at room temp (in dark). Cells were then washed and resuspended in HHnoCa to remove extracellular dye and plated in 384-well plates (Falcon, uncoated) at 20,000-30,000 cells/well in a final volume of 25 μl/well.
(§3) FDSS Assay: To each well of the plate, 10 μL test compound, control (MK801) or HHnoCa buffer was added at different concentrations to yield final concentrations of 0.001, 0.003, 0.010, 0.030, 0.100, 0.300, 1.000, 3.000, 10.000, or 30.000 uM final concentration of DMSO of 0.1%. Following 10 minutes pre-incubation in the dark, plates are loaded onto the Hamamatsu FDSS 6000. After collecting baseline fluorescence images, 3 μM glutamate, 3 μM glycine, and 1 mM Ca^2+ in HHnoCa buffer is added to each well, and Ca^2+ is recorded for 3 minutes. Data were processed by computing ratio of fluorescence at the end of data collection to baseline fluorescence to assess degree of Ca^2+ influx inhibition relative to that observed in MK801.
(§4) Table 8 below provides activity of each compound according to the legend that “++++” indicates inhibition at a concentration<100 nM; “+++” indicates inhibition at a concentration between 100 nM and 1 μM of the disclosed compound; “++” indicates inhibition at a concentration of from 1 μM to 10 μM; and “+” indicates inhibition at a concentration>10 μM.

[2] = molecular target: HEK293 cells expressing NR1/NR2B (Homo sapiens (Human), UniProt Q13224); experiment: NR2B NAM Assay (FDSS Ca2+ influx cell assay); type: cell-based; details: Ca2+ influx inhibition relative to MK801; 3 μM glutamate, 3 μM glycine, 1 mM Ca2+; read-out: NR2B NAM IC50
HEK293 cells expressing NR1/NR2B (Homo sapiens (Human), UniProt Q13224), sequence (Q13224 27-1484, other chains not shown): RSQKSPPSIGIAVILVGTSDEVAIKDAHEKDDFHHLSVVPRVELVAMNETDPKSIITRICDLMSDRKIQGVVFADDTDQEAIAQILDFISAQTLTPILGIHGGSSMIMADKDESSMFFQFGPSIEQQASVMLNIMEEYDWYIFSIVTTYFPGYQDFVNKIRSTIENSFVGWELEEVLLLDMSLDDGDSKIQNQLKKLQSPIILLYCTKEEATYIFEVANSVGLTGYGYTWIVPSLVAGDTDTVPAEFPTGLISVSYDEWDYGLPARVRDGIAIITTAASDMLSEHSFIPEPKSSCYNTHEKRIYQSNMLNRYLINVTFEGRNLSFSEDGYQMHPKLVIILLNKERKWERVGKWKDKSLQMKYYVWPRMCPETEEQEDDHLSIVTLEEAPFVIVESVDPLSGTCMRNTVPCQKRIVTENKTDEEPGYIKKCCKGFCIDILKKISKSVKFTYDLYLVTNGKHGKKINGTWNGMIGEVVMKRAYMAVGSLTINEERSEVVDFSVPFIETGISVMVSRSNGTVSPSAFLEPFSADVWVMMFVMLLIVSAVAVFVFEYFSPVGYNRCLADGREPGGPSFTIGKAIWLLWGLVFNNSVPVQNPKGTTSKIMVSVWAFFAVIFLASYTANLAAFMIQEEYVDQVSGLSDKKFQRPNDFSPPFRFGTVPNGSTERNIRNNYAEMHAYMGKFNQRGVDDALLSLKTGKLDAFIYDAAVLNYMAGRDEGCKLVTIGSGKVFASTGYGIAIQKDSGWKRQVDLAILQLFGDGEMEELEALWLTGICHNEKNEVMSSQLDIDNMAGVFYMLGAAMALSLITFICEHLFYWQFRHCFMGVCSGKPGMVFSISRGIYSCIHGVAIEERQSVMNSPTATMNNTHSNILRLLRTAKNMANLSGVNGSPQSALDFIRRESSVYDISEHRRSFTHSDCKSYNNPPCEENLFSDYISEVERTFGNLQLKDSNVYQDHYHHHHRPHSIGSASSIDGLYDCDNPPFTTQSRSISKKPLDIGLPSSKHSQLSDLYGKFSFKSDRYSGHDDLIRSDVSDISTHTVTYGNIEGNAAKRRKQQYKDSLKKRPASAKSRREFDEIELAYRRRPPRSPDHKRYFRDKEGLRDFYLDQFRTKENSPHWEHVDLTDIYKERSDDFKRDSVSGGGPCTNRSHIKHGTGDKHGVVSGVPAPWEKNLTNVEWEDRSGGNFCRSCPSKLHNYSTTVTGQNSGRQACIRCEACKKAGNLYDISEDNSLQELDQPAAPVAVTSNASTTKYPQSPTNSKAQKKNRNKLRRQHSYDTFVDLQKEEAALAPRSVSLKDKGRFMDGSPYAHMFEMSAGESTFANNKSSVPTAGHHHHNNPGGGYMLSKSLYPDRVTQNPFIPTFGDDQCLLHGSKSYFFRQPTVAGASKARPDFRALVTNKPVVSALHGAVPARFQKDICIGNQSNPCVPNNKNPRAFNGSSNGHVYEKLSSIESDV
Experimental: as §1, §2, §3, §4

HEK293 cells expressing NR1/NR2B (Homo sapiens (Human), UniProt Q05586+Q13224), sequence (Q13224 27-1484, other chains not shown): as above

## Cc1ccc(O[C@H]2C[C@@H]3CN(CC(=O)c4ccc(O)c(F)c4)C[C@@H]3C2)cn1
[1]
  IC50: 1000 to 10000 nM
[2]
  IC50: 2370 nM

## O=C(CN1C[C@H]2C[C@H](Oc3ccc(F)cc3F)C[C@H]2C1)c1ccc(O)cn1
[1]
  IC50: 1000 to 10000 nM
[2]
  IC50: 1150 nM

## Oc1ccc([C@@H](O)CN2C[C@H]3C[C@H](Oc4cccnc4F)C[C@H]3C2)nc1
[1]
  IC50: < 100 nM
[2]
  IC50: 20 nM

## COc1cccc(F)c1O[C@H]1C[C@@H]2CN(CC(O)c3ccc(O)cc3)C[C@@H]2C1 (stereo partly shown)
[1]
  IC50: 100 to 1000 nM
[2]
  IC50: 249 nM

## O=C(CN1C[C@H]2C[C@H](Oc3cccnc3F)C[C@H]2C1)c1ccc(O)c(F)c1
[1]
  IC50: > 10000 nM
[2]
  IC50: 10000 nM

## COc1cccc(O[C@H]2C[C@@H]3CN(CC(=O)c4ccc(O)cn4)C[C@@H]3C2)c1
[1]
  IC50: > 10000 nM
[2]
  IC50: 10000 nM

## OC(CN1C[C@H]2C[C@H](Oc3ccc(F)cc3)C[C@H]2C1)c1cn[nH]c1 (stereo partly shown) [drawing 256]
[1]
  IC50: 1000 to 10000 nM
[2]
  IC50: 4890 nM

## COc1ccc(O[C@H]2C[C@@H]3CN(CC(=O)c4ccc(O)cc4)C[C@@H]3C2)cc1
[1]
  IC50: < 100 nM
[2]
  IC50: 46.4 nM

## COc1cccc(O[C@H]2C[C@@H]3CN(CC(O)c4ccc(O)cc4)C[C@@H]3C2)c1F (stereo partly shown)
[1]
  IC50: < 100 nM
[2]
  IC50: 77.7 nM

## Cc1ccc(O[C@H]2C[C@@H]3CN(CC(O)c4ccc(O)cc4)C[C@@H]3C2)cn1 (stereo partly shown)
[1]
  IC50: 100 to 1000 nM
[2]
  IC50: 140 nM

## COc1ccc(F)c(O[C@H]2C[C@@H]3CN(CC(O)c4ccc(O)cn4)C[C@@H]3C2)c1 (stereo partly shown)
[1]
  IC50: 100 to 1000 nM
[2]
  IC50: 547 nM

## O=C(CN1C[C@H]2C[C@H](Oc3cccc4cnccc34)C[C@H]2C1)c1ccc(O)cc1
[1]
  IC50: 100 to 1000 nM
[2]
  IC50: 409 nM

## O=C(CN1C[C@H]2C[C@H](Oc3ccccc3Cl)C[C@H]2C1)c1ccc(O)cn1
[1]
  IC50: 1000 to 10000 nM
[2]
  IC50: 1660 nM

## O=C(CN1C[C@H]2C[C@H](Oc3ccccc3)C[C@H]2C1)c1ccc(O)cn1
[1]
  IC50: 1000 to 10000 nM
[2]
  IC50: 6240 nM

## N#Cc1ccc(O[C@H]2C[C@@H]3CN(CC(=O)c4ccc(O)cn4)C[C@@H]3C2)cc1
[1]
  IC50: > 10000 nM
[2]
  IC50: 10000 nM

## Cc1ccc(O[C@H]2C[C@@H]3CN(CC(=O)c4ccc(O)cn4)C[C@@H]3C2)c(F)c1
[1]
  IC50: 100 to 1000 nM
[2]
  IC50: 225 nM

## Cc1cccc(O[C@H]2C[C@@H]3CN(CC(=O)c4ccc(O)cn4)C[C@@H]3C2)c1F
[1]
  IC50: 100 to 1000 nM
[2]
  IC50: 435 nM

## Oc1ccc(C(O)CN2C[C@H]3C[C@H](Oc4ccc(F)cc4)C[C@H]3C2)cc1 (stereo partly shown)
[1]
  IC50: < 100 nM
[2]
  IC50: 13 nM

## Oc1ccc(C(O)CN2C[C@H]3C[C@H](Oc4cccc(F)c4F)C[C@H]3C2)nc1 (stereo partly shown)
[1]
  IC50: < 100 nM
[2]
  IC50: 8.78 nM

## O=C(CN1C[C@H]2C[C@@H](Oc3ccc(F)cc3)C[C@H]2C1)c1ccc(O)cc1
[1]
  IC50: < 100 nM
[2]
  IC50: 53.4 nM

## Oc1ccc(C(O)CN2C[C@H]3C[C@H](Oc4ccccc4Cl)C[C@H]3C2)nc1 (stereo partly shown)
[1]
  IC50: < 100 nM
[2]
  IC50: 38 nM

## O=C(CN1C[C@H]2C[C@H](S(=O)(=O)c3ccccc3)C[C@H]2C1)c1ccc(O)c(F)c1
[1]
  IC50: > 10000 nM
[2]
  IC50: 10000 nM

## Oc1ccc(C(O)CN2C[C@H]3C[C@H](Oc4cccnc4)C[C@H]3C2)cc1 (stereo partly shown)
[1]
  IC50: < 100 nM
[2]
  IC50: 94.6 nM

## COc1ccc(O[C@H]2C[C@@H]3CN(CC(=O)c4ccc(O)c(F)c4)C[C@@H]3C2)cc1
[1]
  IC50: 100 to 1000 nM
[2]
  IC50: 102 nM

## Oc1ccc(C(O)CN2C[C@H]3C[C@H](Sc4ccccc4F)C[C@H]3C2)nc1 (stereo partly shown)
[1]
  IC50: < 100 nM
[2]
  IC50: 20.6 nM

## O=C(CN1C[C@H]2C[C@H](Oc3cccnc3)C[C@H]2C1)c1ccc(O)c(F)c1
[1]
  IC50: 100 to 1000 nM
[2]
  IC50: 434 nM

## Cc1ccc(O[C@H]2C[C@@H]3CN(CC(O)c4ccc(O)cn4)C[C@@H]3C2)c(F)c1 (stereo partly shown)
[1]
  IC50: < 100 nM
[2]
  IC50: 14.4 nM

## Oc1ccc(C(O)CN2C[C@H]3C[C@@H](Oc4cc(F)cc(F)c4)C[C@H]3C2)nc1 (stereo partly shown)
[1]
  IC50: 1000 to 10000 nM
[2]
  IC50: 2920 nM

## O=C(CN1C[C@H]2C[C@H](Oc3ccc(F)cc3)C[C@H]2C1)c1ccc(O)cn1
[1]
  IC50: 100 to 1000 nM
[2]
  IC50: 699 nM

## O=C(CN1C[C@H]2C[C@H](Oc3cnccn3)C[C@H]2C1)c1ccc(O)cc1
[1]
  IC50: 100 to 1000 nM
[2]
  IC50: 149 nM

## O=C(CN1C[C@H]2C[C@H](Oc3ccc(F)nc3)C[C@H]2C1)c1ccc(O)cc1
[1]
  IC50: < 100 nM
[2]
  IC50: 55.2 nM

## O=C(CN1C[C@H]2C[C@H](Oc3cccnc3)C[C@H]2C1)c1ccc(O)cc1
[1]
  IC50: < 100 nM
[2]
  IC50: 81.5 nM

## O=C(CN1C[C@H]2C[C@@H](Oc3cccnc3)C[C@H]2C1)c1ccc(O)cc1
[1]
  IC50: 1000 to 10000 nM
[2]
  IC50: 5220 nM

## O=C(CN1C[C@H]2C[C@H](Oc3ccccc3F)C[C@H]2C1)c1ccc(O)cc1
[1]
  IC50: < 100 nM
[2]
  IC50: 16.8 nM

## Oc1ccc([C@@H](O)CN2C[C@H]3C[C@H](Oc4ccccc4)C[C@H]3C2)nc1
[1]
  IC50: < 100 nM
[2]
  IC50: 5.25 nM

## O=C(CN1C[C@H]2C[C@H](Oc3ccc(F)cc3F)C[C@H]2C1)c1ccc(O)cc1
[1]
  IC50: < 100 nM
[2]
  IC50: 41.1 nM

## COc1ccc(O[C@H]2C[C@@H]3CN(CC(=O)c4ccc(O)c(OC)n4)C[C@@H]3C2)cc1
[1]
  IC50: > 10000 nM
[2]
  IC50: 10000 nM

## COC(CN1C[C@H]2C[C@H](Oc3ccc(F)cc3)C[C@H]2C1)c1ccc(OCc2ccccc2)cc1 (stereo partly shown)
[1]
  IC50: > 10000 nM
[2]
  IC50: 10000 nM

## COc1ccc(O[C@H]2C[C@@H]3CN(CC(O)c4ccc(O)cn4)C[C@@H]3C2)cc1 (stereo partly shown)
[1]
  IC50: < 100 nM
[2]
  IC50: 65.8 nM

## Oc1ccc(C(O)CN2C[C@H]3C[C@@H](Oc4cccnc4)C[C@H]3C2)cc1 (stereo partly shown)
[1]
  IC50: 1000 to 10000 nM
[2]
  IC50: 8000 nM

## COc1ccc(S[C@H]2C[C@@H]3CN(CC(=O)c4ccc(O)cc4)C[C@@H]3C2)cc1
[1]
  IC50: 100 to 1000 nM
[2]
  IC50: 230 nM

## COc1ccc(F)c(O[C@H]2C[C@@H]3CN(CC(O)c4ccc(O)cc4)C[C@@H]3C2)c1 (stereo partly shown)
[1]
  IC50: 100 to 1000 nM
[2]
  IC50: 569 nM

## O=C(CN1C[C@H]2C[C@H](Oc3ccc(F)cc3)C[C@H]2C1)c1ccc(O)c(F)n1
[1]
  IC50: > 10000 nM
[2]
  IC50: 10000 nM

## O=C(CN1C[C@H]2C[C@H](Oc3cccc(F)c3F)C[C@H]2C1)c1ccc(O)cn1
[1]
  IC50: 100 to 1000 nM
[2]
  IC50: 308 nM

## O=C(CN1C[C@H]2C[C@H](Sc3ccccc3)C[C@H]2C1)c1ccc(O)cc1
[1]
  IC50: < 100 nM
[2]
  IC50: 26.7 nM

## COc1ccc(O[C@@H]2C[C@@H]3CN(CC(O)c4ccc(O)cc4)C[C@@H]3C2)cc1 (stereo partly shown)
[1]
  IC50: 100 to 1000 nM
[2]
  IC50: 112 nM

## N#Cc1ccc(O[C@H]2C[C@@H]3CN(CC(=O)c4ccc(O)c(F)n4)C[C@@H]3C2)cc1
[1]
  IC50: > 10000 nM
[2]
  IC50: 10000 nM

## Oc1ccc(C(O)CN2C[C@H]3C[C@H](Oc4ccccc4)C[C@H]3C2)nc1 (stereo partly shown)
[1]
  IC50: < 100 nM
[2]
  IC50: 5.72 nM

## Oc1ccc(C(O)CN2C[C@H]3C[C@H](Oc4cncc(F)c4)C[C@H]3C2)cc1 (stereo partly shown)
[1]
  IC50: 100 to 1000 nM
[2]
  IC50: 267 nM

## O=C(CN1C[C@H]2C[C@H](Oc3ccccc3F)C[C@H]2C1)c1ccc(O)cn1
[1]
  IC50: 100 to 1000 nM
[2]
  IC50: 219 nM

## O=C(CN1C[C@H]2C[C@@H](Oc3ccc(F)c(F)c3)C[C@H]2C1)c1ccc(O)cc1
[1]
  IC50: < 100 nM
[2]
  IC50: 68.6 nM

## Oc1ccc(C(O)CN2C[C@H]3C[C@H](Oc4c(F)cccc4F)C[C@H]3C2)nc1 (stereo partly shown)
[1]
  IC50: < 100 nM
[2]
  IC50: 9.6 nM

## Oc1ccc(C(O)CN2C[C@H]3C[C@H](Sc4ccc(F)cc4)C[C@H]3C2)cc1 (stereo partly shown)
[1]
  IC50: < 100 nM
[2]
  IC50: 19.2 nM

## Oc1ccc(C(O)CN2C[C@H]3C[C@@H](Oc4ccc(F)cc4)C[C@H]3C2)cc1 (stereo partly shown)
[1]
  IC50: < 100 nM
[2]
  IC50: 17.8 nM

## COc1ccc(O[C@@H]2C[C@@H]3CN(CC(O)c4ccc(O)c(F)c4)C[C@@H]3C2)cc1 (stereo partly shown)
[1]
  IC50: < 100 nM
[2]
  IC50: 83.9 nM

## COc1ccc(O[C@H]2C[C@@H]3CN(CC(O)c4ccc(O)c(F)c4)C[C@@H]3C2)cc1 (stereo partly shown)
[1]
  IC50: < 100 nM
[2]
  IC50: 41.5 nM
